“Also recorded” adds a separate entry of the source.

Here are results for 3 molecules from US20250152566A1 (priority 2023, published 2025).

The subject of data set [1] is fatigue symptomatology after SARS-CoV-2 infection. Kind of data set: Patients 2.1 to 2.5: Bell score and cumulative sleep time in 24 h with and without Amifampridine. Type of data set: in vivo, human. To be noted: for Bell score, long term: long-term medication, daily dose 20 mg to 25 mg, 5 mg each at an interval of 4 hours. The text has this:
(§1) The Bell-score (or scale) is a measure of the impediment in the case of ME & CFS. It is also suitable for long COVID patients. The Bell scale is individual because each patient has a different stress tolerance and suffering from severe symptoms at rest can be relatively different. • 100 No symptoms at rest; no symptoms with physical stress; a normal overall activity level; able to work full-time without any difficulties. • 90 No symptoms at rest; mild symptoms with physical and mental stress; a normal overall activity level; able to work full-time without any difficulties. • 80 Mild symptoms at rest; the symptoms intensify due to stress; a slight performance limitation noticeable only with activities, which are strenuous; able to work full-time in jobs, which require exertion of force, with difficulties. • 70 Mild symptoms at rest; significant limitations noticeable in the daily activities; the functional state is a total of about 90% of the norm—with the exception of activities, which require an exertion of force; able to work full-time with difficulties. • 60 Mild symptoms at rest; significant limitations in the daily activities; the functional state is a total of about 70%-90% of the norm; unable to work a full-time job if physical work is required there; however, able to work full-time if it is light work and the hours of work can be handled flexibly. • 50 Moderate symptoms at rest; moderate to severe symptoms in response to physical stress or activity; the functional state is reduced to 70% of the norm; unable to perform strenuous work, but able to perform light work or desk work for 4-5 hours daily, whereby rest periods are required. • 40 Moderate symptoms at rest; moderate to severe symptoms in response to stress or activity; the functional state is reduced to 50%-70% of the norm; unable to perform strenuous work, but able to perform light work or desk work for 3-4 hours daily, whereby rest periods are required. • 30 Moderate to severe symptoms at rest; severe symptoms in response to any stress or activity; the functional state is reduced to 50% of the norm; generally housebound; unable to perform strenuous work, but able to perform light work or desk work for 2-3 hours daily, whereby rest periods are required. • 20 Moderate to severe symptoms at rest; severe symptoms in response to any stress or activity; the functional state is reduced to 30%-50% of the norm, except for rare exceptions, unable to leave the house; bedridden for the majority of the day; unable to concentrate for more than one hour per day. • 10 Severe symptoms at rest; bedridden most of the time; leaving the house is not possible; significant cognitive symptoms, which make it impossible to concentrate. • 0 Constant severe symptoms; always bedridden; unable to perform the simplest care measures.
The following dosages of patients 2.1 to 2.5 and the changed Bell score values as well as the need for sleep in hours are illustrated in FIGS. 1 and 2 (FIG. 1 Bell-score with and without Amifampridine, patients 2.1 to 2.5, FIG. 2: cumulative sleep time in 24 h).
In the case of pat. 2.1, a psychotherapist without internal or neurological preexisting conditions, fluctuating fatigue symptomatology with a Bell score between 20 and 40 as well as increased need for sleep with 12 hours/24 h occurred after SARS-CoV-2 infection in May of 2022. After taking 5 mg of Amifampridine once, there was complete convalescence with a Bell score of 100, the need for sleep reduced to 7 hours/24 h.
After withdrawal trials (three days no Amifampridine) with recurrent fatigue, a long-term medication with a daily dose of 20 mg to 25 mg of 5 mg each at an interval of 4 hours occurred, whereby the Bell score is permanently from 90 to 100. This Bell score value can already be maintained for three quarters of a year. Taken from morning to night before going to sleep.
In the case of pat. […]

The test system of data set [2] is fatigue symptomatology after COVID infection. The data set can be described thus: Off-label therapy case descriptions (cases 1 to 3) of fatigue symptomatology after COVID infection. In kind it is in vivo, human. How it is done: (§2) Pyridine-3,4-diamine Amifampridine (formulation as finished drug) was administered in the below-mentioned application examples. As part of the double-blind study, capsules that look the same with Amifampridine or placebo were prepared blind by a pharmacy, whereby only the pharmacy knew which capsules contained active ingredient or placebo.
The following laboratory and ECG controls for detecting substance-associated complications were inconspicuous.
In case 3, a patient is described, who suffered from fatigue symptomatology with a need for sleep of up to 2×9 hours per day, after being infected with COVID twice.

In data set [3] the test system is fatigue after SARS-CoV-2 infection. The data set can be described thus: Double-blind withdrawal trial (verum/placebo, 3 days each) in pat. 2.1 and 2.2. Type of data set: in vivo, human. The following applies: at start of the double-blind trial, already on Amifampridine (4 times 5 mg per day). How it is done:
as §2
In the case of pat. 2.1 and 2.2, a long-term medication with 20 mg of Amifampridine each per day were required for reconvalescence and thus offered prerequisites for a double-blind withdrawal trial for 3 days each.
Pat. 2.1 with verum on days 1-3, followed by placebo on days 4-6:
Pat. (pat. 2.1) with Bell score 90 already started with Amifampridine, as described above, and continued this with blister with […] each day, one drawer with capsules for 3 days with 4 times 5 mg of Amifampridine each. The dosage for 3 days each was placebo with 4 times placebo capsules each for patient 1 and 2 (verum and placebo).
Pat. 2.1: verum on days 1-3, followed by placebo on days 4-6: reduction of the Bell score to minimally 30 in the placebo phase, increased sleep time to 10.5 hours (FIG. 3: pat. 2.1, Bell score (line with squares with side lines of the squares parallel and perpendicular to the main line; sleep time/24 h (line with smaller squares, tips of squares point upwards/downwards as well as to the right and left). […]

Data set [4] relates to fatigue symptomatology in post-COVID syndrome (PCS). Kind of data set: Further study (case series, pat. 1 to 5): Bell score and need for sleep in post-COVID syndrome under Amifampridine. In kind it is in vivo, human.
Text: as §1
A further study was performed on a patient group. A reduced fatigue symptomatology was determined in this study as well in the case of post-COVID syndrome under Amifampridine.
The prevalence of a post-COVID syndrome (PCS) is 10-15% after SARS-CoV-2 infection, a large variety of functional symptoms appear in addition to specific organ diseases, predominantly a fatigue symptomatology. The latter is characterized by persistent tiredness, weakness, cognitive deficits as well as increased need for sleep. […] The Bell score, which focusses on the limitation of the vigilance, physical endurance and job, was used for the evaluation. • In the case of pat. 1 of the further study, a previous Zn. EBV infection is known, otherwise no internal or neurological preexisting conditions. Fluctuating fatigue symptomatology after SARS-CoV-2 infection in May of 2022 with a Bell score between 20 and 40, increased need for sleep with 12 hours/24 h. After taking 5 mg of Amifampridine three times within 24 h (h: hours), there was complete convalescence with a Bell score of 100, the need for sleep reduced to 7 hours/24 h. Withdrawal trials ended in a fatigue again. • In the case of pat. […]

The next data set deals with LEMS patients. The following applies: cited from earlier work.
A further data set relates to MS patients. The following applies: described in the literature; cited from earlier work.
[5] abbreviates: pat. 2.5 (LEMS), 60 mg, later 70 mg per day (3 times 20 mg, optionally additional 5 mg).
Setting [6] is: pat. 2.5 (LEMS), initial administration of 3×5 mg.
The mark [7] stands for this setting: pat. 5 (LEMS), 5 mg three or four times as daily dose.

As to `Nc1ccncc1N` [Amifampridine, Pyridine-3,4-diamine], the need for sleep is 7 hours/24 h in data set [1] (pat. 2.1, after taking 5 mg once, before 12); 7 to 9 h in data set [1] (pat. 2.2, after taking 5 mg, before 11-12 hours/24 h); 7.5 hours/24 h in data set [1] (pat. 2.3, after 5 mg, before 12); 8-9 hours/24 h in data set [1] (pat. 2.5 (LEMS), initial administration of 3×5 mg, before 16-18); 8 to 10 hours/24 h in data set [1] (patient 2.4, after 5 mg, before 12-14); 7 hours/24 h in data set [4] (pat. 1, after 5 mg three times within 24 h, before 12). In addition, the need for sleep is 7.5 hours/24 h in data set [4] (pat. 2, after 5 mg three times, before 12); 7 to 9 h in data set [4] (pat. 3, after taking 5 mg, before 11 to 12 hours/24 h); 8 to 10 hours/24 h in data set [4] (pat. 4, 5 mg three times within 24 h, before 12 to 14); 8-9 hours/24 h in data set [4] (pat. 5 (LEMS), 5 mg three or four times as daily dose, before 16 to 18). The Bell score in data set [1] (pat. 2.1, after taking 5 mg once, before 20 to 40) came to 100; in data set [1] (pat. 2.2, after taking 5 mg, before 40), 80; in data set [1] (pat. 2.3, after 5 mg, before 40), 100; in data set [1] (pat. 2.5 (LEMS), initial administration of 3×5 mg, before 10), 80; in data set [1] (patient 2.4 (post-COVID myocarditis), after 5 mg, before 20), 50; in data set [3] it was 90. In addition, the Bell score in data set [4] (pat. 1, after 5 mg three times within 24 h, before 20 to 40) is 100; in data set [4] (pat. 2, after 5 mg three times, before 40) it was 100; in data set [4] (pat. 3, after taking 5 mg, before 40), 100; in data set [4] (pat. 4 (post-COVID myocarditis), 5 mg three times within 24 h, before 20), 50. Besides, the “Bell score, long term” value in data set [1] (pat. 2.1, held for three quarters of a year) was in the range of 90 to 100; in data set [1] (pat. 2.2, past month), 90 to 100. For the same molecule, the “duration of the effect” value is “about 36 hours” in data set [1] (pat. 2.2, after taking 5 mg) and “about 36 hours” in data set [4] (pat. 3, after taking 5 mg). Moreover, the vigilance entry is reported as “unlimited vigilance” in data set [1] (pat. 2.3, after 5 mg) and “unlimited vigilance” in data set [4] (pat. 2, after 5 mg three times). The “Bell score with regard to fatigue” value in data set [1] (setting [5]) is 70 to 80. Further, the “Bell score with regard to the muscular deficits” value in data set [1] (setting [5]) is recorded as “approx. 20”. The fatigue entry in data set [1] (setting [6]) and in data set [4] (setting [7]) was “the fatigue ceased” in each case. In addition, the muscular endurance entry in data set [1] (setting [6]) and in data set [4] (setting [7]) was “improved muscular endurance” throughout. Moreover, the muscular deficits result in data set [2] (case 1) is listed as “immediate improvement of the muscular deficits”. Moreover, the “serious fatigue symptomatology existing since the COVID infection” value in data set [2] (case 1, need for sleep or rest up to 20 hours per day before) was “sudden improvement”. Further, the “laboratory and ECG controls for detecting substance-associated complications” value in data set [2] (case 2) is listed as “inconspicuous”. Also, the ability to concentrate entry is on record as “complete restitution of the ability to concentrate” in data set [2] (case 2, 5 mg of Amifampridine) and “sudden improvement of the ability to concentrate” in data set [2] (case 3, 5 mg of Amifampridine). Also, in data set [2] (case 2, 5 mg of Amifampridine), the assignable side effects result was “Slight perioral paresthesias”. Moreover, in data set [2] (case 2, 5 mg of Amifampridine), the fatigue symptomatology entry is “complete improvement of the fatigue symptomatology”. Moreover, the existing fatigue result in data set [2] (case 2, daily dose of 3×5 mg) is recorded as “ceases completely”. Moreover, the side effects entry in data set [2] (case 3, 5 mg of Amifampridine) is given as “Transient perioral paresthesias with very low intensity”. In addition, the “need for sleep and rest” value in data set [2] (case 3, 5 mg of Amifampridine, before up to 2×9 hours per day) is “physiological need for sleep and rest”. The “co-indicated / coincident fatigue of LEMS patients” value in the data set on LEMS patients (LEMS patients) was “improvement of a co-indicated fatigue”.
As for `Nc1ccncc1` [Fampridine], the “accompanying fatigue symptomatology in MS patients” value in the data set on MS patients is “improvement of an accompanying fatigue symptomatology; also recorded: favorable effects”.
As for Amifampridine Phosphate, the “coincident fatigue with LEMS” value with LEMS patients (as phosphates, 20 to 80 mg as daily doses, J Clin Neuromuscul Dis. 2019) was “Improvement of a coincident fatigue”.
